A word on the IC50: it is the concentration at which inhibition is half-maximal.

This passage reports IC50 results from US20260347372A1, “SMALL MOLECULE INHIBITORS OF KRAS G12D MUTANT” (MERCK SHARP & DOHME LLC, priority 2023, published 2026).

One experiment addresses KRAS G12D (Homo sapiens, UniProt P01116, G12D). The experiment can be described thus: SOS-catalyzed nucleotide exchange assay, KRAS G12D (Procedure A). The note with it: guanine nucleotide exchange (GNE). Format: biochemical. The source says: (§1) Procedure for SOS-Catalyzed Nucleotide Exchange Assay for KRAS-WT, G12C/D/V, G13D, HRAS, and NRAS (Procedure A)
(§2) Recombinant KRAS-G12C protein used in this assay has an additional triple mutation (C51S/C80L/C118S). Whereas KRAS-WT, G12D/V, G13D, HRAS and NRAS are in context of their WT protein sequence background. Specifically, the SOS-catalyzed nucleotide exchange assay utilizes a preformed TR-FRET complex containing a specific biotinylated RAS protein (KRAS-WT, G12C/V/D, G13D, HRAS, NRAS; described above) with Bodipy-GDP, and Terbium-streptavidin. Compounds are preincubated with this complex for 60 minutes. Subsequently, recombinant human SOS protein and unlabeled GTP are added to initiate the exchange reaction. Small molecule inhibitors stabilize the Bodipy-GDP complex whereas the untreated protein rapidly exchanges Bodipy-GDP for unlabeled GTP resulting in reduced TR-FRET signal.
(§3) To assemble the preformed TR-FRET complexes, each biotinylated RAS protein is diluted to 2 μM in an EDTA Buffer (20 mM HEPES pH 7.5, 50 mM sodium chloride, 10 mM EDTA, and 0.01% Tween) and incubated at room temperature for one hour. This mixture is then further diluted to 90 nM in an Assay Buffer (20 mM HEPES pH 7.5, 150 mM sodium chloride, 10 mM magnesium chloride, and 0.005% Tween) containing 15 nM of Terbium-Streptavidin (Invitrogen, catalog #PV3577) and 900 nM of Bodipy-GDP (Invitrogen, catalog #G22360) and incubated at room temperature for six hours. It should be noted that this preformed TR-FRET complex for each of the RAS protein were made ahead of time, aliquoted and stored at −80° C. until the day of the experiment.
(§4) Each test compound (10 mM stock in DMSO) is diluted in DMSO to make a final-10-point, 3-fold dilution and is acoustically dispensed into a 384-well assay plate (Corning, catalog #3820) using an Echo 550 (Labcyte). Each well of the assay plate receives 3 μL of a specific 3×RAS preformed TR-FRET complex and 3 μL of Assay Buffer and is incubated at room temperature for 60 minutes (preincubation time). Each well then receives 3 μL of 3× recombinant human SOS protein and GTP (Sigma, G8877) in Assay Buffer and is incubated at room temperature for 30 minutes (G13D), 60 minutes (KRAS WT/G12C/D, H/NRAS) or 90 minutes for G12V. The final reaction in each well of 9 μL consists of 3 mM GTP, specific Ras and SOS proteins in the following concentrations: KRAS-G12C/SOS=3 nM/40 nM, KRAS-WT and G12D/SOS=1 nM/40 nM, KRAS-G12V/SOS=1.25 nM/160 nM, KRAS-G13D/SOS=1.25 nM/0 nM, HRAS and NRAS=1.25 nM/40 nM.
(§5) The time-resolved fluorescence resonance energy transfer (TR-FRET) signal is measured on an Envision (PerkinElmer) plate reader: Excitation filter=340 nm; emission1=495 nm; emission2=520 nm; dichroic mirror=D400/D505; delay time=[…]. The signal of each well is determined as the ratio of the emission at 520 nm to that at 495 nm. Percent effect of each well is determined after normalization to control wells containing DMSO (no effect) or a saturating concentration of inhibitor (max effect). The apparent effect as a function of compound concentration is fit to a four-parameter logistic equation.
(§6) For Example No. 14, nucleotide exchange assays for KRAS G12D, WT, G12C, and G12V were performed according to Procedure B. All the other compounds were tested according to Procedure A.

For a further experiment, the target named is KRAS WT (Homo sapiens, UniProt P01116). The experiment can be described thus: SOS-catalyzed nucleotide exchange assay, KRAS WT (Procedure A). The note with it: GNE. The class given is biochemical.
From the text: as §1, §2, §3, §4, §5, §6

The target of the next experiment is KRAS G12V (Homo sapiens, UniProt P01116, G12V). The experiment can be described thus: SOS-catalyzed nucleotide exchange assay, KRAS G12V (Procedure A). Format: biochemical. The note with it: GNE.
From the text: as §1, §2, §3, §4, §5, §6

A further experiment deals with T1, AsPC-1 cells (Homo sapiens, UniProt P01116, G12D).
T1 construct: p-ERK/total ERK AlphaSureFire read-out
The experiment can be described thus: Cellular phospho-ERK assay, AsPC-1 cells (KRAS G12D). The class given is cell-based. The note with it: 2 hours, read-out: AsPC1 pERK IC50. As for the experimental part: Procedure for Cellular Phospho-ERK Assay in KRAS Wild Type and Mutant (G12D, G12V) Cell Lines
PANC08.13 cells (ATCC® CRL-2551™), containing homozygous KRAS-G12D activating mutation, were cultured in growth medium made of RPMI1640-GlutaMAX™-I (ThermoFisher Scientific 61870) containing 15% heat inactivated fetal bovine serum (ThermoFisher Scientific 10091148)). AsPC-1 cells (ATCC® CRL-1682™), containing homozygous KRAS-G12D activating mutation, were cultured in T150 flask in growth medium (RPMI medium 1640-GlutaMAX™-I (ThermoFisher Scientific 61870) containing 10% fetal bovine serum (ThermoFisher Scientific 10091148)).
Cells for the assay were harvested in growth medium after TrypLE (ThermoFisher scientific 12604021) digestion and were seeded in a 384-well collagen coated cell culture plate (Corning 356702) at a density of 10,000-15,000 cells/20 μL/well, and incubated at 37° C., 5% CO2 overnight. The compound (with 10 mM stock concentration) dose-response titrations were prepared [30 μM final ERK detection assay concentration and 1:3 dilutions, 10-point dose response] and appropriate amounts (270 nL) of test compounds were dispensed in a 384-well intermediate plate using an Echo 550 liquid handler. 30 μL/well of RPMI medium 1640-GlutaMAX™-I was added to the intermediate plate and the contents of the intermediate plate (10 μL/well) were then transferred to the 384-well collagen coated cell culture plate, which was incubated at 37° C., 5% CO2 for 2 hours. After removal of medium from the collagen coated cell culture plate, cells were lysed in lysis buffer from Alpha SureFire® Ultra™ Multiplex p-ERK and total ERK assay kit (PerkinElmer MPSU-PTERK) containing Halt™ Protease and Phosphatase inhibitor cocktail (ThermoFisher Scientific 78446) at room temperature with constant shaking at 300 rpm for 30 minutes. The cell lysates were then transferred to an OptiPlate-384 plate (PerkinElmer 6005620), and the phosphorylation of ERK (p-ERK) and total ERK levels were detected by Alpha SureFire® Ultra™ Multiplex p-EEK kit and total ERK assay kit (PerkinElmer MPSU-PTERK) following the manufacturer's protocol. Assay plates were read on a EnVision Multimode Plate Reader (PerkinElmer), and the ratio of p-ERK vs. total ERK in each well was used as the final readout. Dose response curves were analyzed using a 4-parameter logistic model to calculate IC50 values using Spotfire software.

KRAS WT, sequence (P01116 with tags, fused parts or gaps isoform P01116-2): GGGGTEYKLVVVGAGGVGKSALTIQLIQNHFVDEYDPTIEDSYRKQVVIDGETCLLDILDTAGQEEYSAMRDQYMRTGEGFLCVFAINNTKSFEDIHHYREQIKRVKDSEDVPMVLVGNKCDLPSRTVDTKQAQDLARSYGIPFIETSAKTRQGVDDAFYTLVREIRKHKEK
KRAS G12V, sequence (P01116 with tags, fused parts or gaps isoform P01116-2 G12V): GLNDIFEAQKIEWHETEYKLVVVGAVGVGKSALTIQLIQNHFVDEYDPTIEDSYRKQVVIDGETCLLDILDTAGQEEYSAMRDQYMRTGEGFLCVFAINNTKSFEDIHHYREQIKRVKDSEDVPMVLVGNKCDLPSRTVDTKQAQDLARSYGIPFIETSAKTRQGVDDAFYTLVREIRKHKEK
T1 sequence (P01116 1-188 isoform P01116-2 G12D): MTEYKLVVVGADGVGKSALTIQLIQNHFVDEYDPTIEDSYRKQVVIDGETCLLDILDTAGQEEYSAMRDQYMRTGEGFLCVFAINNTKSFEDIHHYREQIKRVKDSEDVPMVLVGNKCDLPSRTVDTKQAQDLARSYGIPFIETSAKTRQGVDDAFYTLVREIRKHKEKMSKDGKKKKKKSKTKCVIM
KRAS G12D, sequence (P01116 with tags, fused parts or gaps isoform P01116-2 G12D): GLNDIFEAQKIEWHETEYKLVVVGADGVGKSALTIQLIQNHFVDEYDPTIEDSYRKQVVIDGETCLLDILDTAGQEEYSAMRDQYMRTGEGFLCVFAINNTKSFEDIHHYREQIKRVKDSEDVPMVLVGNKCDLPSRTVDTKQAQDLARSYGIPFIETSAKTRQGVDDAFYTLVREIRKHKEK

In the case of `F/C=C1\CN2CCC[C@@]2(COc2nc(N3C[C@H]4CC[C@@H](C3)N4)c3c(n2)C2(CC2)c2c-3ccnc2-c2c(C3CC3)c(Cl)cc3[nH]ncc23)C1` (single isomer, unassigned) [Ex-116], the IC50 against KRAS G12D came to 3.38 nM; against KRAS WT, 772 nM; against KRAS G12V it was 804 nM; at AsPC-1 cells, 373 nM.

As to `Fc1ccc2cc3[nH]ncc3c(-c3nccc4c3sc3nc(OC[C@@]56CCCN5C[C@H](F)C6)nc(N5C[C@H]6CC[C@@H](C5)N6)c34)c2c1` [Ex-57, 4-((1R,5S)-3,8-diazabicyclo[3.2.1]octan-3-yl)-8-(6-fluoro-1H-benzo[f]indazol-4-yl)-2-(((2R,7aS)-2-fluorotetrahydro-1H-pyrrolizin-7a(5H)-yl)methoxy)pyri-do[4′,3′:4,5] thieno[2,3-d]pyrimidine], the concentration for half-maximal inhibition (IC50) against KRAS G12D worked out at 23.6 nM; at KRAS WT it was 2890 nM; at KRAS G12V it was 2090 nM; at AsPC-1 cells, 299 nM.

For the compound `C#Cc1csc2cc3[nH]ncc3c(-c3nccc4c3sc3nc(OC[C@@]56CCCN5C/C(=C\F)C6)nc(N5C[C@H]6CC[C@@H](C5)N6)c34)c12` [Ex-85, 4-((1R,5S)-3,8-diazabicyclo[3.2.1]octan-3-yl)-8-(5-ethynyl-1H-thieno[3,2-f]indazol-4-yl)-2-(((S,Z)-2-(fluoromethylene)tetrahydro-1H-pyrrolizin-7a(5H)-yl)methoxy)pyrido[4′,3′:4,5]thieno[2,3-d]pyrimidine], the IC50 on KRAS G12D turned out to be 2.06 nM; at KRAS WT, 32.1 nM; on KRAS G12V, 28.2 nM; at AsPC-1 cells it was 8.52 nM.

In the case of `F[C@H]1CN2CCC[C@@]2(COc2nc(N3C[C@H]4CC[C@@H](C3)N4)c3c(n2)sc2c(-c4c(C5CC5)c(C(F)(F)F)cc5[nH]ncc45)nccc23)C1` [Ex-80, 4-((1R,5S)-3,8-diazabicyclo [3.2.1]octan-3-yl)-8-(5-cyclopropyl-6-(trifluoromethyl)-1H-indazol-4-yl)-2-(((2R,7aS)-2-fluorotetrahydro-1H-pyrrolizin-7a(5H)-yl)methoxy)pyrido [4′,3′:4,5]thieno [2,3-d]pyrimi-dine], the IC50 at KRAS G12D is 3.57 nM; against KRAS WT, 706 nM; against KRAS G12V, 734 nM; at AsPC-1 cells it was 411 nM.

In the case of `C#Cc1c(F)ccc2cc3[nH]ncc3c(-c3nccc4c3sc3nc(OC[C@]5(CN6CCC7(CCC7)CC6)CC5(F)F)nc(N5C[C@H]6CC[C@@H](C5)N6)c34)c12` [Ex-98, 2-(((R)-1-((7-azaspiro[3.5]nonan-7-yl)methyl)-2,2-difluorocyclopropyl)meth-oxy)-4-((1R,5S)-3,8-diazabicyclo[3.2.1]octan-3-yl)-8-(5-ethynyl-6-fluoro-1H-benzo[f]indazol-4-yl)pyrido[4′,3′:4,5]thie-no[2,3-d]pyrimidine], the IC50 was 6.92 nM on KRAS G12D, 6360 nM against KRAS WT, greater than 11100 nM on KRAS G12V and 362 nM at AsPC-1 cells.

With `Cc1cc2[nH]ncc2c(-c2nccc3c2sc2nc(OCC4CCS(=O)(=O)C4)nc(N4C[C@H]5CC[C@@H](C4)N5)c23)c1C(F)(F)F` (stereo partly drawn) [Ex-30, 3-(((4-((1R,5S)-3,8-diazabicyclo[3.2.1]octan-3-yl)-8-(6-methyl-5-(trifluoromethyl)-1H-indazol-4-yl)pyrido[4′,3′:4,5]thieno[2,3-d]pyrimidin-2-yl)oxy)methyl)tetrahydrothio-phene 1,1-dioxide], the 50% inhibitory concentration (IC50) was 2600 nM against KRAS G12D, greater than 11100 nM against KRAS WT, greater than 11100 nM against KRAS G12V and greater than 30000 nM at AsPC-1 cells.

For `C#Cc1c(F)ccc2cc3[nH]ncc3c(-c3nccc4c3sc3nc(OC[C@]5(CN6CCN(CC(F)(F)F)CC6)CC5(F)F)nc(N5C[C@H]6CC[C@@H](C5)N6)c34)c12` [Ex-101, 4-((1R,5S)-3,8-diazabicyclo[3.2.1]octan-3-yl)-2-(((R)-2,2-difluoro-1-((4-(2,2,2-trifluoroethyl)piperazin-1-yl)methyl)cyclopropyl)methoxy)-8-(5-ethynyl-6-fluoro-1H-benzo[f]indazol-4-yl)pyrido[4′,3′:4,5]thie-no[2,3-d]pyrimidine], the IC50 is 33.1 nM at KRAS G12D, greater than 11100 nM on KRAS WT, greater than 11100 nM against KRAS G12V and 1210 nM at AsPC-1 cells.

As for `Cc1cc2[nH]ncc2c(-c2nccc3c2sc2nc(OCC4CS(=O)(=O)C4)nc(N4C[C@H]5CC[C@@H](C4)N5)c23)c1C(F)(F)F` [Ex-27, 3-(((4-((1R,5S)-3,8-diazabicyclo[3.2.1]octan-3-yl)-8-(6-methy1-5-(trifluoromethyl)-1H-indazol-4-yl)pyrido[4′,3′:4,5]thieno[2,3-d]pyrimidin-2-yl)oxy)methyl)thietane 1,1-dioxide], the concentration for half-maximal inhibition (IC50) on KRAS G12D is 3590 nM; against KRAS WT, greater than 11100 nM; at KRAS G12V it was greater than 11100 nM; on AsPC-1 cells it was 5730 nM.

Consider `C#Cc1c(F)ccc2cc3[nH]ncc3c(-c3nccc4c3sc3nc(OCC5(CN6CC[C@@H](F)C6)CC5)nc(N5C[C@H]6CC[C@@H](C5)N6)c34)c12` [Ex-94, 4-((1R,5S)-3,8-diazabicyclo[3.2.1]octan-3-yl)-8-(5-ethynyl-6-fluoro-1H-benzo[f]indazol-4-yl)-2-((1-(((R)-3-fluoropyrrolidin-1-yl)methyl)cyclopropyl)methoxy)pyrido[4′,3′: 4,5]thieno[2,3-d]pyrimidine], for which the IC50 against KRAS G12D is 2.99 nM; on KRAS WT it was 847 nM; against KRAS G12V it was 1950 nM; on AsPC-1 cells, 85.9 nM.
